Where “and” joins values, the source holds several entries; their conditions need not be identical. Equal entries are not always repeated.
Tests used:
[1] = test system: muscarinic cholinergic receptor; format: cell-based, chick
[2] = test system: muscarinic binding sites; parameters: species or system chick

Structure (SMILES): CC(=O)OCC[N+](C)(C)C [Acetylcholine, acetylcholine]
- Effect relative to acetylcholine [1]: 100%
- agonistic effect on Ca2+ mobilization [1]: full agonists
- RH, two-sites model [2]: 15.3 pmol/L and 20.9 pmol/L
- RL, two-sites model [2]: 13.8 pmol/L and 19.4 pmol/L
- nH, phenomenological cooperativity model (Hill coefficient) [2]: 0.41 and 0.39

Structure (SMILES): CN1[C@@H]2CC[C@H]1C[C@@H](OC(=O)C(CO)c1ccccc1)C2 (some centres unmarked) [Atropine, atropine]
- nH, phenomenological cooperativity model (Hill coefficient) [2]: 0.79

Structure (SMILES): CC(C[N+](C)(C)C)OC(N)=O (centres unmarked) [Bethanechol, bethanechol]
- Effect relative to acetylcholine [1]: 23%
- agonistic effect on Ca2+ mobilization [1]: partial agonist
- type of antagonism [1]: reversible competitive antagonists
- RH, two-sites model [2]: 9.1 pmol/L
- RL, two-sites model [2]: 19.9 pmol/L
- nH, phenomenological cooperativity model (Hill coefficient) [2]: 0.65

Structure (SMILES): C[N+](C)(C)CCOC(N)=O [Carbachol, carbachol]
- Effect relative to acetylcholine [1]: 92%
- agonistic effect on Ca2+ mobilization [1]: full agonists
- RH, two-sites model [2]: 14.6 pmol/L
- RL, two-sites model [2]: 18.4 pmol/L
- nH, phenomenological cooperativity model (Hill coefficient) [2]: 0.41

Structure (SMILES): O=C1CC[C@@](c2ccccc2)(C2CCN(Cc3ccccc3)CC2)C(=O)N1 [Dexetimide, dexetimide]
- type of antagonism [1]: irreversible competitive antagonists
- nH, phenomenological cooperativity model (Hill coefficient) [2]: 0.63

Structure (SMILES): O=C1CC[C@](c2ccccc2)(C2CCN(Cc3ccccc3)CC2)C(=O)N1 [Levetimide, levetimide]
- type of antagonism [1]: reversible competitive antagonists
- nH, phenomenological cooperativity model (Hill coefficient) [2]: 0.76

Structure (SMILES): O=C1CCCN1CC#CCN1CCCC1 [Oxotremorine, oxotremorine]
- agonistic effect on Ca2+ mobilization [1]: No reaction
- type of antagonism [1]: reversible competitive antagonists
- nH, phenomenological cooperativity model (Hill coefficient) [2]: 0.95

Structure (SMILES): CC[C@@H]1C(=O)OC[C@@H]1Cc1cncn1C [Pilocarpine, pilocarpine]
- agonistic effect on Ca2+ mobilization [1]: No reaction
- type of antagonism [1]: reversible competitive antagonists
- nH, phenomenological cooperativity model (Hill coefficient) [2]: 0.68

Structure (SMILES): CN1CCN(CC(=O)N2c3ccccc3C(=O)Nc3cccnc32)CC1 [Pirenzepine, pirenzepine]
- type of antagonism [1]: reversible competitive antagonists
- nH, phenomenological cooperativity model (Hill coefficient) [2]: 1.31
